#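 These data come from cells grown in 96-well plates and exposed to compound for 48 hours at five concentrations. TGI denotes the concentration required for complete inhibition of growth.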
# Tests used:
# Assay in all cases: DTP human tumour cell line panel, 48 h
# 786-0 renal = test system: 786-0 renal
# A498 renal = test system: A498 renal
# A549 NSCLC = test system: A549 NSCLC
# ACHN renal = test system: ACHN renal
# CAKI-1 renal = test system: CAKI-1 renal
# CCRF-CEM leukemia = test system: CCRF-CEM leukemia
# COLO 205 colon = test system: COLO 205 colon
# DU-145 prostate = test system: DU-145 prostate
# EKVX NSCLC = test system: EKVX NSCLC
# HCC-2998 colon = test system: HCC-2998 colon
# HCT-116 colon = test system: HCT-116 colon
# HCT-15 colon = test system: HCT-15 colon
# HL-60(TB) leukemia = test system: HL-60(TB) leukemia
# HOP-62 NSCLC = test system: HOP-62 NSCLC
# HOP-92 NSCLC = test system: HOP-92 NSCLC
# HS 578T breast = test system: HS 578T breast
# HT29 colon = test system: HT29 colon
# IGROV1 ovarian = test system: IGROV1 ovarian
# K-562 leukemia = test system: K-562 leukemia
# KM12 colon = test system: KM12 colon
# LOX IMVI melanoma = test system: LOX IMVI melanoma
# M14 melanoma = test system: M14 melanoma
# MALME-3M melanoma = test system: MALME-3M melanoma
# MCF7 breast = test system: MCF7 breast
# MDA-MB-231 breast = test system: MDA-MB-231 breast
# MDA-MB-435 = test system: MDA-MB-435
# MDA-N = test system: MDA-N
# MOLT-4 leukemia = test system: MOLT-4 leukemia
# NCI-H226 lung = test system: NCI-H226 lung
# NCI-H23 lung = test system: NCI-H23 lung
# NCI-H460 lung = test system: NCI-H460 lung
# NCI-H522 lung = test system: NCI-H522 lung
# NCI/ADR-RES ovarian = test system: NCI/ADR-RES ovarian
# OVCAR-3 ovarian = test system: OVCAR-3 ovarian
# OVCAR-4 ovarian = test system: OVCAR-4 ovarian
# OVCAR-5 ovarian = test system: OVCAR-5 ovarian
# OVCAR-8 ovarian = test system: OVCAR-8 ovarian
# PC-3 prostate = test system: PC-3 prostate
# RPMI-8226 leukemia = test system: RPMI-8226 leukemia
# RXF 393 renal = test system: RXF 393 renal
# SF-268 CNS = test system: SF-268 CNS
# SF-295 CNS = test system: SF-295 CNS
# SF-539 CNS = test system: SF-539 CNS
# SK-MEL-2 melanoma = test system: SK-MEL-2 melanoma
# SK-MEL-28 melanoma = test system: SK-MEL-28 melanoma
# SK-MEL-5 melanoma = test system: SK-MEL-5 melanoma
# SK-OV-3 ovarian = test system: SK-OV-3 ovarian
# SN12C renal = test system: SN12C renal
# SNB-19 CNS = test system: SNB-19 CNS
# SNB-75 CNS = test system: SNB-75 CNS
# SR leukemia = test system: SR leukemia
# SW-620 colon = test system: SW-620 colon
# T-47D breast = test system: T-47D breast
# TK-10 renal = test system: TK-10 renal
# U251 CNS = test system: U251 CNS
# UACC-257 melanoma = test system: UACC-257 melanoma
# UACC-62 melanoma = test system: UACC-62 melanoma
# UO-31 renal = test system: UO-31 renal
# BT-549 breast = test system: BT-549 breast
smiles,measurement,setting,value
O=C1OCC2=C1C(c1ccc3c(c1)OCO3)c1cc3c(cc1O2)OCO3 (configuration not stated),TGI,786-0 renal,> 30.1 µM
same,TGI,A498 renal,42.8 µM
same,TGI,A549 NSCLC,> 100 µM
same,TGI,ACHN renal,> 100 µM
same,TGI,CAKI-1 renal,> 100 µM
same,TGI,CCRF-CEM leukemia,> 30.7 µM
same,TGI,COLO 205 colon,15.2 µM
same,TGI,DU-145 prostate,> 58.8 µM
same,TGI,EKVX NSCLC,> 100 µM
same,TGI,HCC-2998 colon,59.3 µM
same,TGI,HCT-116 colon,41.5 µM
same,TGI,HCT-15 colon,> 79.1 µM
same,TGI,HL-60(TB) leukemia,0.365 µM
same,TGI,HOP-62 NSCLC,> 100 µM
same,TGI,HOP-92 NSCLC,> 100 µM
same,TGI,HS 578T breast,20.8 µM
same,TGI,HT29 colon,3.54 µM
same,TGI,IGROV1 ovarian,> 100 µM
same,TGI,K-562 leukemia,28.8 µM
same,TGI,KM12 colon,> 100 µM
same,TGI,LOX IMVI melanoma,> 100 µM
same,TGI,M14 melanoma,11.4 µM
same,TGI,MALME-3M melanoma,> 100 µM
same,TGI,MCF7 breast,> 100 µM
same,TGI,MDA-MB-231 breast,> 100 µM
same,TGI,MDA-MB-435,0.323 µM
same,TGI,MDA-N,0.368 µM
same,TGI,MOLT-4 leukemia,> 49.1 µM
same,TGI,NCI-H226 lung,> 100 µM
same,TGI,NCI-H23 lung,> 100 µM
same,TGI,NCI-H460 lung,> 100 µM
same,TGI,NCI-H522 lung,0.533 µM
same,TGI,NCI/ADR-RES ovarian,2.03 µM
same,TGI,OVCAR-3 ovarian,> 21.3 µM
same,TGI,OVCAR-4 ovarian,> 100 µM
same,TGI,OVCAR-5 ovarian,> 100 µM
same,TGI,OVCAR-8 ovarian,68.1 µM
same,TGI,PC-3 prostate,> 63.7 µM
same,TGI,RPMI-8226 leukemia,10.5 µM
same,TGI,RXF 393 renal,7.6 µM
same,TGI,SF-268 CNS,> 100 µM
same,TGI,SF-295 CNS,> 72.2 µM
same,TGI,SF-539 CNS,2.81 µM
same,TGI,SK-MEL-2 melanoma,> 100 µM
same,TGI,SK-MEL-28 melanoma,> 59.1 µM
same,TGI,SK-MEL-5 melanoma,> 100 µM
same,TGI,SK-OV-3 ovarian,> 85.2 µM
same,TGI,SN12C renal,> 100 µM
same,TGI,SNB-19 CNS,> 27.2 µM
same,TGI,SNB-75 CNS,11.9 µM
same,TGI,SR leukemia,5.19 µM
same,TGI,SW-620 colon,> 100 µM
same,TGI,T-47D breast,> 100 µM
same,TGI,TK-10 renal,> 100 µM
same,TGI,U251 CNS,> 100 µM
same,TGI,UACC-257 melanoma,> 100 µM
same,TGI,UACC-62 melanoma,> 72.6 µM
same,TGI,UO-31 renal,> 85.6 µM
O=C1Nc2c(Cl)cc(Cl)cc2C1=O,TGI,786-0 renal,39.5 µM
same,TGI,A498 renal,53.4 µM
same,TGI,A549 NSCLC,35.9 µM
same,TGI,ACHN renal,> 100 µM
same,TGI,BT-549 breast,35.1 µM
same,TGI,CAKI-1 renal,35.4 µM
same,TGI,CCRF-CEM leukemia,72.9 µM
same,TGI,COLO 205 colon,50.8 µM
same,TGI,EKVX NSCLC,29.6 µM
same,TGI,HCC-2998 colon,83.4 µM
same,TGI,HCT-116 colon,40.5 µM
same,TGI,HCT-15 colon,47.5 µM
same,TGI,HL-60(TB) leukemia,26.7 µM
same,TGI,HOP-62 NSCLC,40.4 µM
same,TGI,HOP-92 NSCLC,57.5 µM
same,TGI,HS 578T breast,37.6 µM
same,TGI,HT29 colon,> 100 µM
same,TGI,IGROV1 ovarian,50.3 µM
same,TGI,K-562 leukemia,> 100 µM
same,TGI,KM12 colon,> 100 µM
same,TGI,LOX IMVI melanoma,35.5 µM
same,TGI,M14 melanoma,38.6 µM
same,TGI,MALME-3M melanoma,7.88 µM
same,TGI,MCF7 breast,39.6 µM
same,TGI,MDA-MB-231 breast,45.9 µM
same,TGI,MDA-MB-435,15.2 µM
same,TGI,MDA-N,21.8 µM
same,TGI,MOLT-4 leukemia,48.6 µM
same,TGI,NCI-H226 lung,46.6 µM
same,TGI,NCI-H23 lung,48.7 µM
same,TGI,NCI-H460 lung,47.6 µM
same,TGI,NCI/ADR-RES ovarian,54.5 µM
same,TGI,OVCAR-3 ovarian,52.5 µM
same,TGI,OVCAR-4 ovarian,33.1 µM
same,TGI,OVCAR-5 ovarian,40.7 µM
same,TGI,OVCAR-8 ovarian,55.8 µM
same,TGI,PC-3 prostate,> 100 µM
same,TGI,RXF 393 renal,28.2 µM
same,TGI,SF-295 CNS,31.8 µM
same,TGI,SF-539 CNS,34.4 µM
same,TGI,SK-MEL-2 melanoma,29.7 µM
same,TGI,SK-MEL-28 melanoma,35.4 µM
same,TGI,SK-MEL-5 melanoma,28.8 µM
same,TGI,SK-OV-3 ovarian,> 100 µM
same,TGI,SN12C renal,32.2 µM
same,TGI,SNB-19 CNS,> 100 µM
same,TGI,SNB-75 CNS,28.6 µM
same,TGI,SR leukemia,39.4 µM
same,TGI,SW-620 colon,41.5 µM
same,TGI,TK-10 renal,> 100 µM
same,TGI,U251 CNS,55.2 µM
same,TGI,UACC-257 melanoma,35.1 µM
same,TGI,UACC-62 melanoma,30.2 µM
same,TGI,UO-31 renal,44.9 µM

# Source: PubChem BioAssay (NCI)
